Here are results for one compound from patent publication US20040204466A1, “Treatment of bronchial asthma using 5-HT3 receptor antagonists” (Orchid Chemicals and Pharmaceuticals Ltd., priority 2003, published 2004).

Common to all, as to assay type: in vivo, female Balb/c mice
Test [1] has as its system ovalbumin sensitized and challenged mice. As to the kind of experiment: Airway hyperresponsiveness to methacholine (Penh, barometric plethysmography). Particulars: 24 hours after antigen challenge, increasing doses of methacholine, FIGS. 5 and 6.
Experimental: Four to five-week old female Balb/c mice (Harlan Laboratories, Indianapolis, Ind.) were housed according to the NIH guidelines and were allowed constant access to food and water. Intraperitoneal injections of 6 μg of grade V chicken egg ovalbumin (Ova; Sigma-Aldrich, St. Louis, Mo.) adsorbed to 2.25 mg Imject Alum (Pierce, Rockford, Ill.) and dissolved in PBS. Aerosol sensitization with 0.2% ovalbumin (Ova) for 10 minutes using Ultra-Neb 90 nebulizer (DeVilbiss, Somerset, Pa.). Twenty-four hours after antigen challenge, the mice were challenged with increasing does of methacholine and Penh values were recorded by barometric plethysmography.
Test [2] has the same test system. As to the kind of experiment: Eosinophils in BAL fluid following methacholine challenge. The settings on record: immediately following methacholine challenge; FIGS. 7 and 8.
Test [3] shares this test system. As to the kind of experiment: Serum IgE levels. The settings on record: gavage 120 μg/kg twice a day for 10 days; values increased, albeit insignificantly.
Test [4] shares this test system. As to the kind of experiment: Ova-specific airway resistance of early and late allergic response to antigen challenge. The settings on record: gavage 120 μg/kg twice a day for 10 days. As to the method:
Four to five-week old female Balb/c mice (Harlan Laboratories, Indianapolis, Ind.) were housed according to the NIH guidelines and were allowed constant access to food and water. Intraperitoneal injections of 6 μg of grade V chicken egg ovalbumin (Ova; Sigma-Aldrich, St. Louis, Mo.) adsorbed to 2.25 mg Imject Alum (Pierce, Rockford, Ill.) and dissolved in PBS. Aerosol sensitization with 0.2% ovalbumin (Ova) for 10 minutes using Ultra-Neb 90 nebulizer (DeVilbiss, Somerset, Pa.). Ondansetron was administered by gavage in the dose of 120 μg/kg twice a day for 10 days.

Turning to `Cc1nccn1CC1CCc2c(c3ccccc3n2C)C1=O` (centres unmarked) [Ondansetron], the AHR to methacholine result in test [1] is reported as “completely suppressed”. In addition, the “numbers of eosinophil in BAL” value in test [2] is listed as “significantly descried numbers of eosinophil”. Also, in test [3], the “mean serum IgE concentrations” value was “unaffected”. Also, the “Ova-specific airway resistance of the early allergic response (EAR)” value in test [4] (FIG. 1) was “without EAR protection”. The “Ova-specific airway resistance of the late allergic response (LAR)” value in test [4] (P <0.001, FIG. 2) is recorded as “significant protection during the LAR”.
